What was measured:
[1] = system: ABUTH (Abutilon theophrasti); test: Postemergence herbicidal evaluation; type: in vivo, Medic.; conditions: postemergence
Method in brief: (§1)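 Visual 0–9 injury scores versus control plants, covering stand, vigour, malformation, size, chlorosis and general appearance, taken four to five weeks post-spray and averaged over replicate tests. Plants were sprayed at roughly two weeks old and held on greenhouse benches.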

GALAP (Galium aparine) [2] = test: Postemergence herbicidal evaluation; type: in vivo; conditions: postemergence
Method in brief: as §1

[3] = system: IPOHE (Ipomoea hederacea); test: Postemergence herbicidal evaluation; type: in vivo, (L.) Jacq.; conditions: postemergence
Method in brief: as §1

SETVI (Setaria viridis) [4] = test: Postemergence herbicidal evaluation; type: in vivo, (L.) Beau; conditions: postemergence
Method in brief: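 Visual injury score (0-9: stand, vigor, malformation, size, chlorosis, overall appearance vs untreated control) taken four to five weeks post-spray. Two-week-old seedlings received about 0.0040 to 1.000 kg/ha active compound in acetone/water with 0.5% TWEEN 20.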

[5] = system: GLXMAW (Soybean, Williams); test: Postemergence herbicidal evaluation; type: in vivo, Glycine max, (L.) Merr. cv Williams; conditions: postemergence
Method in brief: as §1

[6] = system: TRZAWR (Wheat, Winter, cv Riband); test: Postemergence herbicidal evaluation; type: in vivo, Triticum aestivum; conditions: postemergence
Method in brief: as §1

[7] = system: ABUTH (Abutilon theophrasti); test: Preemergence herbicidal evaluation; type: in vivo, Medic.; conditions: rated 4-5 weeks after treatment
[8] = system: AMBEL (Ambrosia artemisifolia); test: Preemergence herbicidal evaluation; type: in vivo, L.; conditions: rated 4-5 weeks after treatment
Method in brief: (§2)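 Steps: mix seeds with potting soil; plant on ~1 inch soil per cup; spray compound in aqueous acetone; hold on greenhouse benches with routine watering; rate 0–9 visually against control at 4–5 weeks.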

[9] = system: CASOB (Cassia obtusifolia); test: Preemergence herbicidal evaluation; type: in vivo, L.; conditions: rated 4-5 weeks after treatment
Method in brief: as §2

[10] = system: CHEAL (Chenopodium album); test: Preemergence herbicidal evaluation; type: in vivo, L.; conditions: rated 4-5 weeks after treatment
Method in brief: as §2

GALAP (Galium aparine) [11] = test: Preemergence herbicidal evaluation; type: in vivo; conditions: rated 4-5 weeks after treatment
Method in brief: as §2

[12] = system: ECHCG (Echinochloa crus-galli); test: Preemergence herbicidal evaluation; type: in vivo, (L.) Beau; conditions: rated 4-5 weeks after treatment
Method in brief: as §2

SETVI (Setaria viridis) [13] = test: Preemergence herbicidal evaluation; type: in vivo, (L.) Beau; conditions: rated 4-5 weeks after treatment
Method in brief: as §2

ZEAMX (Corn, Field) = test: Preemergence herbicidal evaluation; type: in vivo, Zea mays, L.; conditions: rated 4-5 weeks after treatment
[14] = system: MOOVA (Monochoria vaginalis); test: Flooded paddy, preemergence weed control; type: in vivo, Presl.; conditions: rated 3-4 weeks after treatment, 0-9 rating scale
Method in brief: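 Greenhouse paddy test, preemergence. Seeds planted in the top 0.5 cm of silt loam soil, which remained flooded at 1.5–3 cm depth. Scored 0-9 by visual comparison with control.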

ORYSAT (Rice, Tebonnet) = test: Flooded paddy, post-transplant rice tolerance; type: in vivo, Oryza sativa, (L.) Tebonnet; conditions: flooded paddy, post-transplant rice, rated 3-4 weeks after treatment, 0-9 rating scale
Method in brief: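 Visual 0-9 rating against a control, covering stand, vigor, malformation, size, chlorosis and overall appearance. Treatment was applied after transplanting paired ten-day-old seedlings into flooded silt loam, with water kept 1.5 to 3 cm deep on greenhouse benches.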

CC(C)C1COC(c2nsc3ccc(-n4c(=O)cc(C(F)(F)F)n(C)c4=O)cc23)=N1 (stereo not drawn) [Compound 74, 3-[3-(4-isopropyl-2-oxazolin-2-yl)-1,2-benzisothiazol-5-yl]-1-methyl-6-(trifluoromethyl)uracil]
ABUTH herbicidal rating ([1]; rate 0.0320 kg/ha): 9.0
ABUTH herbicidal rating ([1]; rate 0.0620 kg/ha): 9.0
GALAP herbicidal rating (GALAP (Galium aparine) [2]; rate 0.0320 kg/ha): 6.0
GALAP herbicidal rating (GALAP (Galium aparine) [2]; rate 0.0620 kg/ha): 8.0
IPOHE herbicidal rating ([3]; rate 0.0320 kg/ha): 7.0
IPOHE herbicidal rating ([3]; rate 0.0620 kg/ha): 9.0
SETVI herbicidal rating (SETVI (Setaria viridis) [4]; rate 0.0320 kg/ha): 2.0
SETVI herbicidal rating (SETVI (Setaria viridis) [4]; rate 0.0620 kg/ha): 2.0
GLXMAW herbicidal rating ([5]; rate 0.0320 kg/ha): 5.5
GLXMAW herbicidal rating ([5]; rate 0.0620 kg/ha): 7.0
TRZAWR herbicidal rating ([6]; rate 0.0320 kg/ha): 3.5
TRZAWR herbicidal rating ([6]; rate 0.0620 kg/ha): 4.0
Preemergence herbicidal rating ABUTH ([7]; Rate 0.0620 kg/ha): 3.0
Preemergence herbicidal rating ABUTH ([7]; Rate 0.1250 kg/ha): 7.0
Preemergence herbicidal rating ABUTH ([7]; Rate 0.2500 kg/ha): 9.0
Preemergence herbicidal rating AMBEL ([8]; Rate 0.0620 kg/ha): 0.0
Preemergence herbicidal rating AMBEL ([8]; Rate 0.1250 kg/ha): 6.0
Preemergence herbicidal rating AMBEL ([8]; Rate 0.2500 kg/ha): 9.0
Preemergence herbicidal rating CASOB ([9]; Rate 0.0620 kg/ha): 0.0
Preemergence herbicidal rating CASOB ([9]; Rate 0.1250 kg/ha): 0.0
Preemergence herbicidal rating CASOB ([9]; Rate 0.2500 kg/ha): 3.0
Preemergence herbicidal rating CHEAL ([10]; Rate 0.0620 kg/ha): 9.0
Preemergence herbicidal rating CHEAL ([10]; Rate 0.1250 kg/ha): 9.0
Preemergence herbicidal rating CHEAL ([10]; Rate 0.2500 kg/ha): 9.0
Preemergence herbicidal rating GALAP (GALAP (Galium aparine) [11]; Rate 0.0620 kg/ha): 6.0
Preemergence herbicidal rating GALAP (GALAP (Galium aparine) [11]; Rate 0.1250 kg/ha): 7.0
Preemergence herbicidal rating GALAP (GALAP (Galium aparine) [11]; Rate 0.2500 kg/ha): 9.0
Preemergence herbicidal rating ECHCG ([12]; Rate 0.0620 kg/ha): 0.0
Preemergence herbicidal rating ECHCG ([12]; Rate 0.1250 kg/ha): 2.0
Preemergence herbicidal rating ECHCG ([12]; Rate 0.2500 kg/ha): 6.0
Preemergence herbicidal rating SETVI (SETVI (Setaria viridis) [13]; Rate 0.0620 kg/ha): 0.0
Preemergence herbicidal rating SETVI (SETVI (Setaria viridis) [13]; Rate 0.1250 kg/ha): 2.0
Preemergence herbicidal rating SETVI (SETVI (Setaria viridis) [13]; Rate 0.2500 kg/ha): 8.0
Preemergence herbicidal rating ZEAMX (ZEAMX (Corn, Field); Rate 0.0620 kg/ha): 2.0
Preemergence herbicidal rating ZEAMX (ZEAMX (Corn, Field); Rate 0.1250 kg/ha): 2.0
Preemergence herbicidal rating ZEAMX (ZEAMX (Corn, Field); Rate 0.2500 kg/ha): 4.0
herbicidal rating, MOOVA ([14]; rate 0.0080 kg/ha): 4.5
herbicidal rating, MOOVA ([14]; rate 0.0320 kg/ha): 9.0
herbicidal rating, MOOVA ([14]; rate 0.1250 kg/ha): 9.0
herbicidal rating, ORYSAT (rice tolerance) (ORYSAT (Rice, Tebonnet); rate 0.0080 kg/ha): 1.5
herbicidal rating, ORYSAT (rice tolerance) (ORYSAT (Rice, Tebonnet); rate 0.0320 kg/ha): 4.0
herbicidal rating, ORYSAT (rice tolerance) (ORYSAT (Rice, Tebonnet); rate 0.1250 kg/ha): 6.0

Reference: patent publication US6706663B2, “Herbicidal 3-heterocyclic substituted benzisothiazole and benzisoxazole compounds” (Wyeth, priority 2000, dated 2004)
